In US8476302B2, “α-ketoamide derivatives useful endothelial lipase inhibitors” (Janssen Pharmaceutica N.V., priority 2010, dated 2013):
Several values for one entry are separate records, joined by “and”; a condition that tells them apart may be missing. Identical values can stand only once.

Legend:
[1] = target: T1, human endothelial lipase (EL) (Homo sapiens, UniProt Q9Y5X9); assay: Endothelial Lipase Assay, cell surface lipase activity (human); assay type: cell-based; conditions: cells expressing human EL, PLA1 substrate 10 μM, fluorescence reaction rate; several values in a cell are repeat determinations
T1 construct: host or cells: cells expressing human endothelial lipase
T1 sequence (Q9Y5X9 21-500): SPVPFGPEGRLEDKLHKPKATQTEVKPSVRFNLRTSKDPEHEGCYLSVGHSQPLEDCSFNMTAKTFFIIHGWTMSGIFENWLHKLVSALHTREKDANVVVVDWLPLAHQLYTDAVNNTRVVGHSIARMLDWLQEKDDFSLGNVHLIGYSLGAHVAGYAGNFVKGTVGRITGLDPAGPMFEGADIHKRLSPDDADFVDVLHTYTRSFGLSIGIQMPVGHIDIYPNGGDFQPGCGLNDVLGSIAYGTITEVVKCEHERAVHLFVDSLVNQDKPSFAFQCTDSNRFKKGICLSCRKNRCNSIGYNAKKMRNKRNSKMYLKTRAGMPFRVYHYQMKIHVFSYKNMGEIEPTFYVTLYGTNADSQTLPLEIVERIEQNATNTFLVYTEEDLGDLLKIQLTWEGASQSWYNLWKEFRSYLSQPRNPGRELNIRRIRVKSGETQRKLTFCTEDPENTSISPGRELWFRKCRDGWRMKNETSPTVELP
Description: (§1) Endothelial Lipase Assay (Human/Mouse)
(§2) To assay for cell surface lipase activity, cells expressing human endothelial lipase (EL) or LPL were plated in CellBIND® 384-well plates (Corning, Lowell, Mass.) in 25 μL serum free medium at a density of 2000 cells/well. After 18-24 hours incubation at 37° C., the medium was removed and replaced with 15 μL assay buffer [Hank's Buffered Saline Solution with 25 mM HEPES pH 7.2] and 15 μL PLA1 for a final concentration of 10 μM using a Multidrop reagent dispenser. Fluorescence signal was monitored for 30 min at 37° C. on a Safire II plate reader in kinetic mode (60 cycles, kinetic interval: 30 seconds) with an excitation wavelength of 490 nm and an emission wavelength of 515 nm. Linear regression of the fluorescence intensity collected from 480 to 1500 seconds was used to calculate the reaction rate (the slope) and the slopes were used to calculate IC50 values where appropriate. The amount of BODIPY-labeled product generated was calculated at the 30 min time point as determined from standard curve analysis of purified BODIPY FL C5. In all studies using the inhibitor Ebelactone B, consistent results were obtained when it was dissolved as a stock in DMSO, immediately before use.

[2] = target: T2, Mouse EL (Mus musculus, UniProt Q9WVG5); assay: Endothelial Lipase Assay, cell surface lipase activity (mouse); assay type: cell-based; conditions: PLA1 substrate 10 μM, fluorescence reaction rate, several values in a cell are repeat determinations
T2 construct: host or cells: not described for mouse EL
T2 sequence (Q9WVG5 21-500): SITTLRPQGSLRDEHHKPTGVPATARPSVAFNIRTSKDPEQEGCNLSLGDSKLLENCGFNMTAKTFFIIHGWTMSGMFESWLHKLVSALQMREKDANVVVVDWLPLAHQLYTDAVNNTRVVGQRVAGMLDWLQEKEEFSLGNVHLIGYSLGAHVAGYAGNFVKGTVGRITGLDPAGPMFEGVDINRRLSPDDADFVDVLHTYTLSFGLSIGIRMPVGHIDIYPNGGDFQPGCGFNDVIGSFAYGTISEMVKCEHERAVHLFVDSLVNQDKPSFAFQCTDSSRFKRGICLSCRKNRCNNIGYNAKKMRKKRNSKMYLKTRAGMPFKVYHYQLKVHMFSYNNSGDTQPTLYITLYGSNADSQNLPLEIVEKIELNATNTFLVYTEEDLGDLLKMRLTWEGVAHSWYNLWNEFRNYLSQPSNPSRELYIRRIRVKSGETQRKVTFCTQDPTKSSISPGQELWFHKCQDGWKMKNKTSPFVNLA
Description: as §1, §2

| SMILES | IC50 [1] | IC50 [2] |
| --- | --- | --- |
| O=C(CCCCCOc1ccccc1)C(=O)NCc1nnc(-c2cccc(Oc3ccccc3)c2)o1 [Compound 60] | 7.12 µM | 9.79 µM |
| O=C(CCCCCOc1cccc(F)c1)C(=O)NCc1nnc(-c2ccc3c(c2)Oc2ccccc2O3)o1 [Compound 62] | 5.2 µM | 2.72 µM |
| COc1cccc(OCCCCCC(=O)C(=O)NCc2nnc(-c3ccccc3)o2)c1 [Compound 63] | 5.45 µM | 6.12 µM |
| COc1cccc(OCCCCCC(=O)C(=O)NCc2nnc(-c3cccc(Oc4ccccc4)c3)o2)c1 [Compound 64] | 10.9 µM | 9.98 µM |
| COc1cccc(OCCCCCC(=O)C(=O)NCc2nnc(-c3ccc(Oc4ccccc4)cc3)o2)c1 [Compound 65] | 0.872 µM | 0.793 µM |
| O=C(CCCCCCc1ccccc1)C(=O)NCc1nnc(-c2ccc(Oc3cccc(Cl)c3)cc2)o1 [Compound 66] | 0.255 µM | 0.366 µM |
| O=C(CCCCCOc1cccc(F)c1)C(=O)NCc1nnc(-c2ccc(Oc3cccc(Cl)c3)cc2)o1 [Compound 67] | 0.64 µM | 0.648 µM |
| O=C(CCCCCCc1ccccc1)C(=O)NCc1nnc(-c2ccc(OCc3ccccc3)cc2)o1 [Compound 68] | 0.142 µM | 0.124 µM |
| O=C(CCCCCOc1cccc(F)c1)C(=O)NCc1nnc(-c2ccc(OCc3ccccc3)cc2)o1 [Compound 69, N-((5-(4-(benzyloxy)phenyl)-1,3,4-oxadiazol-2-yl)methyl)-7-(3-fluorophenoxy)-2-oxoheptanamide] | 0.272 µM | 0.835 µM |
| O=C(CCCCCCc1ccccc1)C(=O)NCc1nnc(-c2ccccc2)s1 [Compound 74] | 0.219 µM | 0.436 µM |
| CN(c1ccc(Br)cc1)c1ccc(-c2nnc(CNC(=O)C(=O)CCCCCCc3ccccc3)o2)cc1 [Compound 75] | 11.6 µM | 11.2 µM |
| O=C(CCCCCCc1ccccc1)C(=O)NCc1nnc(-c2ccc(OCc3cccc(Cl)c3)cc2)o1 [Compound 76] | 3.07 µM | 1.95 µM |
| O=C(CCCCCCc1ccccc1)C(=O)NCc1nnc(-c2ccc(OCc3ccc(Cl)cc3)cc2)o1 [Compound 77] | 33.3 µM | 33.3 µM |
| Cn1ccnc1COc1ccc(-c2nnc(CNC(=O)C(=O)CCCCCCc3ccccc3)o2)cc1 [Compound 78] | 0.944 µM | 0.775 µM |
| O=C(CCCCCCc1ccccc1)C(=O)NCc1nnc(-c2ccc(OCc3ccc(F)cc3)cc2)o1 [Compound 80] | 0.6 µM | 0.214 µM |
| COc1ccc(COc2ccc(-c3nnc(CNC(=O)C(=O)CCCCCCc4ccccc4)o3)cc2)cc1 [Compound 81] | 11.5 µM | 8.34 µM |
| O=C(CCCCCCc1ccccc1)C(=O)NCc1nnc(-c2ccc(OCc3cccnc3)cc2)o1 [Compound 82] | 0.108 µM | 0.133 µM |
| COC(=O)c1cccc(COc2ccc(-c3nnc(CNC(=O)C(=O)CCCCCCc4ccccc4)o3)cc2)c1 [Compound 83] | 0.121 µM | 0.064 µM |
| O=C(CCCCCCc1ccccc1)C(=O)NCc1nnc(-c2ccc(OCc3cccc(F)c3)cc2)o1 [Compound 84] | 0.235 µM | 0.2 µM |
| O=C(CCCCCCc1ccccc1)C(=O)NCc1nnc(-c2ccc(OCc3ccccc3F)cc2)o1 [Compound 85] | 0.223 µM | 0.169 µM |
| O=C(CCCCCCc1ccccc1)C(=O)NCc1nnc(-c2ccc(OCc3ccncc3)cc2)o1 [Compound 86] | 0.156 µM | 0.072 µM |
| O=C(CCCCCCc1ccccc1)C(=O)NCc1nnc(-c2ccc(Oc3ncccn3)cc2)o1 [Compound 87] | 1.45 µM | 0.708 µM |
| O=C(CCCCCCc1ccccc1)C(=O)NCc1nnc(-c2ccc(OCc3ccccn3)cc2)o1 [Compound 88] | 0.178 µM | 0.196 µM |

| SMILES | IC50 [1] | IC50 [2] |
| --- | --- | --- |
| O=C(CCCCCCc1ccccc1)C(=O)NCc1nnc(-c2ccc(OCc3ccc4ccccc4n3)cc2)o1 [Compound 89] | 0.565 µM | 0.232 µM |
| O=C(CCCCCCc1ccccc1)C(=O)NCc1nnc(-c2ccc(OCc3cc(F)cc(F)c3)cc2)o1 [Compound 90] | 0.548 µM and 0.188 µM | 0.08 µM and 0.159 µM |
| O=C(CCCCCOc1ccc(F)cc1F)C(=O)NCc1nnc(-c2ccc(Oc3ccccc3)cc2)o1 [Compound 92] | 0.432 µM | 0.911 µM |
| O=C(CCCCCOc1c(F)cccc1F)C(=O)NCc1nnc(-c2ccc(Oc3ccccc3)cc2)o1 [Compound 93] | 3.06 µM | 1.48 µM |
| O=C(CCCCCOc1cc(F)ccc1F)C(=O)NCc1nnc(-c2ccc(OCc3ccccc3)cc2)o1 [Compound 94] | 0.936 µM | 0.634 µM |
| O=C(CCCCCOc1cc(F)cc(F)c1)C(=O)NCc1nnc(-c2ccc(Oc3ccccc3)cc2)o1 [Compound 95] | 1.06 µM | 0.56 µM |
| O=C(CCCCCOc1cccc(Cl)c1)C(=O)NCc1nnc(-c2ccc(OCc3ccccc3)cc2)o1 [Compound 96] | 1.3 µM | 0.666 µM |
| O=C(CCCCCOc1cc(F)ccc1F)C(=O)NCc1nnc(-c2ccc(Oc3ccccc3)cc2)o1 [Compound 98] | 1.73 µM | 0.774 µM |
| O=C(CCCCCOc1ccc(F)cc1F)C(=O)NCc1nnc(-c2ccc(OCc3ccccc3)cc2)o1 [Compound 99] | 2.15 µM | 1.05 µM |
| O=C(CCCCCOc1cc(F)cc(F)c1)C(=O)NCc1nnc(-c2ccc(OCc3ccccc3)cc2)o1 [Compound 100] | 1.33 µM | 0.551 µM |
| O=C(CCCCCOc1c(F)cccc1F)C(=O)NCc1nnc(-c2ccc(OCc3ccccc3)cc2)o1 [Compound 101] | 5.48 µM | 19.9 µM |
| O=C(CCCCCOc1cccc(F)c1F)C(=O)NCc1nnc(-c2ccc(Oc3ccccc3)cc2)o1 [Compound 102] | 1.97 µM | 0.809 µM |
| O=C(CCCCCCc1ccccc1)C(=O)NCc1nnc(-c2ccc(OCn3nnc4ccccc43)cc2)o1 [Compound 104] | 0.23 µM | 0.181 µM |
| O=C(CCCCCCc1ccccc1)C(=O)NCc1nnc(-c2ccc(Oc3ccc(F)cc3)cc2)o1 [Compound 106] | 0.746 µM | 0.298 µM |
| O=C(CCCCCCc1ccccc1)C(=O)NCc1nnc(-c2ccc(OCc3ccncn3)cc2)o1 [Compound 107] | 0.345 µM | 0.216 µM |
| O=C(CCCCCOc1cc(F)cc(F)c1)C(=O)NCc1nnc(-c2ccccc2)s1 [Compound 108] | 0.626 µM | 1.17 µM |
| CN(Cc1ccccc1)c1ccc(-c2nnc(CNC(=O)C(=O)CCCCCCc3ccccc3)o2)cc1 [Compound 109] | 0.505 µM | 0.317 µM |
| CN(Cc1ccc(F)c(F)c1)c1ccc(-c2nnc(CNC(=O)C(=O)CCCCCCc3ccccc3)o2)cc1 [Compound 110] | 0.677 µM | 0.346 µM |
| CN(Cc1ccccn1)c1ccc(-c2nnc(CNC(=O)C(=O)CCCCCCc3ccccc3)o2)cc1 [Compound 111] | 0.236 µM | 0.156 µM |
| CC(C)(C)OC(=O)N(Cc1ccccc1)c1ccc(-c2nnc(CNC(=O)C(=O)CCCCCCc3ccccc3)o2)cc1 [Compound 115] | 0.515 µM | 0.254 µM |
| O=C(CCCCCCc1ccccc1)C(=O)NCc1nnc(-c2ccc(NCc3ccccc3)cc2)o1 [Compound 116] | 0.325 µM | 0.289 µM |
| N#Cc1cccc(COc2ccc(-c3nnc(CNC(=O)C(=O)CCCCCCc4ccccc4)o3)cc2)c1 [Compound 117] | 0.078 µM | 0.05 µM |
